Values quoted from earlier work as cited in US20150246027A1, “FIXED DOSE PHARMACEUTICAL COMPOSITION COMPRISING DEFERASIROX AND DEFERIPRONE” (CIPLA LIMITED, priority 2012, published 2015).
Values after ≈ are worked out from the molar mass of the structure shown. “Also recorded” adds a separate entry of the source.

What was measured:
[1] = for solubility in water (in words): water / aqueous media
[2] = oral; majority excreted as inactive glucuronide metabolite
[3] = Bio-pharmaceutics Classification System

Compound | solubility in water ([1]; water) [mg/mL] | solubility in water (in words) [1] | ingested dose excreted as the active form [2] | BCS class [3] | solubility at pH 6.8 (in words) ([1]; pH 6.8, until the buffer strength is altered) | permeability (in words)
Cc1c(O)c(=O)ccn1C [Deferiprone, 3-hydroxy-1,2-dimethylpyridin-4-one] | 12.95 (≈ 93.1 mM) | sparingly soluble | less than 10% | – | – | –
O=C(O)c1ccc(-n2nc(-c3ccccc3O)nc2-c2ccccc2O)cc1 [Deferasirox, 4-[3,5-bis(2-hydroxyphenyl)-[1,2,4]triazol-1-yl]enzoic acid] | – | highly water-insoluble; also recorded: practically insoluble | – | Class II | insoluble | good permeability
